Data on eight compounds can be found in ChEMBL document CHEMBL1201862, “PubChem BioAssay data set” (2004).

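96-well plates; 48 h exposure; 5 concentrations. Endpoints by linear interpolation between flanking doses. Not reached: highest tested concentration assigned. The concentration for 50% growth inhibition is given as GI50.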 Calls of active or inactive are those of the source. No stated cut-off is given here; in the data, active = GI50 up to about 1.1 µM and inactive = higher.

As usually defined, the GI50 is the concentration that inhibits growth by half.

Some test systems named below: RXF 393; LOX IMVI; 786-0; OVCAR-8; K562; BT-549; OVCAR-4; HOP-62; MDA-N; SW-620; U-251; SNB-19; TK-10; NCI-H23; ACHN; NCI/ADR-RES; T47D; NCI-H522.
What all share (experiment): DTP human tumour cell line panel, 48 h

Regarding `Clc1ccc(-c2nc(-c3ccc(Cl)cc3)[s+]s2)cc1`, the GI50 in the experiment on RXF 393 was 84.7 µM (inactive); in the experiment on LOX IMVI, 33.1 µM (inactive); with 786-0 it was 38 µM (inactive); in the experiment with OVCAR-8 it was 39.8 µM (inactive); in the experiment on K562, 24.3 µM (inactive); in the experiment on BT-549 it was 72.9 µM (inactive). The GI50 in the experiment with OVCAR-4 is 27.7 µM (inactive); with HOP-62, 34 µM (inactive); with MDA-N it was > 100 µM (inactive); in the experiment with SW-620, 55.8 µM (inactive); with U-251 it was 30.4 µM (inactive); in the experiment with SNB-19, 50.5 µM (inactive). Further, the GI50 in the experiment with TK-10 is 24 µM (inactive); with NCI-H23 it was 78 µM (inactive); in the experiment on ACHN it was 38.6 µM (inactive); in the experiment on NCI/ADR-RES it was 39.6 µM (inactive); with T47D, > 100 µM (inactive); in the experiment on NCI-H522, 29.4 µM (inactive).

Take `O=C(NCCCNCCN1C(=O)c2cccc3cc([N+](=O)[O-])cc(c23)C1=O)c1cc(-c2ccccc2)nc2ccccc12`: the GI50 in the experiment on RXF 393 was 1.49 µM (inactive); in the experiment on LOX IMVI, 1.04 µM (active); in the experiment on 786-0, 1.45 µM (inactive); in the experiment on OVCAR-8, 0.933 µM (active); in the experiment on K562, 0.836 µM (active); with BT-549 it was 6.15 µM (inactive). Moreover, the GI50 is 3.2 µM (inactive) with OVCAR-4; 6.49 µM (inactive) in the experiment with HOP-62; 1.53 µM (inactive) in the experiment on MDA-N; 0.955 µM (active) with SW-620; 2.09 µM (inactive) with U-251; 3.72 µM (inactive) in the experiment on SNB-19. In addition, the GI50 in the experiment on TK-10 was 7.74 µM (inactive); with NCI-H23 it was 3.02 µM (inactive); in the experiment with ACHN, 0.991 µM (active); in the experiment with NCI/ADR-RES, 4.22 µM (inactive); in the experiment on T47D, 8.07 µM (inactive); in the experiment with NCI-H522, 1.62 µM (inactive).

As to `Cc1ccc(F)cc1NC(=O)O/N=C(\Cl)C(C)C`, the GI50 is 3.05 µM (inactive) in the experiment with RXF 393; 1.98 µM (inactive) in the experiment with LOX IMVI; 5.69 µM (inactive) with 786-0; 17.5 µM (inactive) in the experiment on OVCAR-8; 1.97 µM (inactive) with K562; 2.18 µM (inactive) in the experiment on BT-549. The GI50 is 16 µM (inactive) in the experiment on OVCAR-4; 19.5 µM (inactive) with HOP-62; 5.62 µM (inactive) in the experiment on MDA-N; 2.35 µM (inactive) in the experiment on SW-620; 23.3 µM (inactive) with U-251; 35.5 µM (inactive) in the experiment on SNB-19. For the same compound, the GI50 is 3.71 µM (inactive) in the experiment on TK-10; 17.9 µM (inactive) in the experiment on NCI-H23; 2.14 µM (inactive) in the experiment on ACHN; 10.6 µM (inactive) in the experiment on NCI/ADR-RES; 4.73 µM (inactive) in the experiment on T47D; 0.791 µM (active) in the experiment with NCI-H522.

Regarding `O=C(NNc1ccc([N+](=O)[O-])cc1[N+](=O)[O-])/C(O)=C\C(=O)c1ccccc1`, the GI50 is 16.3 µM (inactive) in the experiment on RXF 393; 24.5 µM (inactive) in the experiment on LOX IMVI; 13.2 µM (inactive) with 786-0; 18.7 µM (inactive) with OVCAR-8; 25.1 µM (inactive) in the experiment with K562; 22.2 µM (inactive) in the experiment with BT-549. In addition, the GI50 is 22.6 µM (inactive) in the experiment on OVCAR-4; 16.3 µM (inactive) with HOP-62; 27.9 µM (inactive) in the experiment with MDA-N; 16.6 µM (inactive) in the experiment on SW-620; 14.9 µM (inactive) in the experiment with U-251; 25.4 µM (inactive) in the experiment on SNB-19. Further, the GI50 with TK-10 was 22.4 µM (inactive); with NCI-H23 it was 20 µM (inactive); with ACHN, 23.1 µM (inactive); with NCI/ADR-RES, 16.3 µM (inactive); in the experiment on T47D, 15.6 µM (inactive); in the experiment on NCI-H522 it was 25.6 µM (inactive).

Regarding `O=C1c2ccccc2C(=O)N1CCSCC(CO)SCCN1C(=O)c2ccccc2C1=O` (centres undefined), the GI50 with RXF 393 is > 100 µM (inactive); in the experiment with LOX IMVI, > 100 µM (inactive); with 786-0 it was > 100 µM (inactive); in the experiment with OVCAR-8, > 100 µM (inactive); in the experiment with K562, 75.3 µM (inactive); in the experiment on BT-549 it was > 100 µM (inactive). Also, the GI50 with OVCAR-4 was 48.6 µM (inactive); in the experiment with HOP-62, > 100 µM (inactive); in the experiment on MDA-N it was > 100 µM (inactive); in the experiment on SW-620, > 100 µM (inactive); in the experiment with U-251, > 100 µM (inactive); in the experiment on SNB-19, > 100 µM (inactive). Further, the GI50 with TK-10 is > 100 µM (inactive); in the experiment on NCI-H23, > 100 µM (inactive); with ACHN, > 100 µM (inactive); in the experiment with NCI/ADR-RES it was 74.8 µM (inactive); with T47D it was 86.9 µM (inactive); in the experiment on NCI-H522 it was 62.5 µM (inactive).

In the case of `Cc1ccc(C2=Nc3cccc4cccc(c34)N2)cc1`, the GI50 in the experiment with RXF 393, in the experiment with LOX IMVI, in the experiment on 786-0, with OVCAR-8, in the experiment with K562 and in the experiment on BT-549 was > 100 µM (inactive) each time. In addition, the GI50 in the experiment on OVCAR-4, in the experiment on HOP-62, in the experiment on MDA-N, in the experiment with SW-620, in the experiment on U-251 and in the experiment on SNB-19 was > 100 µM (inactive) in each case. The GI50 in the experiment with TK-10, in the experiment with NCI-H23, in the experiment with ACHN, in the experiment on NCI/ADR-RES, in the experiment on T47D and in the experiment on NCI-H522 was > 100 µM (inactive) each time.

Turning to `C/C(=N\NS(=O)(=O)c1ccc(C)cc1)P(=O)(O)O`, the GI50 in the experiment on RXF 393, in the experiment on LOX IMVI, in the experiment with 786-0, in the experiment with OVCAR-8, with K562 and in the experiment on BT-549 was > 100 µM (inactive) in each case. In addition, the GI50 with OVCAR-4, in the experiment with HOP-62, in the experiment on MDA-N, in the experiment on SW-620, with U-251 and in the experiment on SNB-19 was > 100 µM (inactive) in each case. Also, the GI50 in the experiment with TK-10, in the experiment with NCI-H23, in the experiment on ACHN, in the experiment on NCI/ADR-RES, in the experiment with T47D and in the experiment with NCI-H522 was > 100 µM (inactive) throughout.

Regarding `C#C[C@]1(O)CC[C@H]2[C@@H]3CCC4=C/C(=N\OCCN(CC)CC)CC[C@]4(C)[C@H]3CC[C@@]21C`, the GI50 in the experiment with RXF 393 was 2.41 µM (inactive); with LOX IMVI, 3.13 µM (inactive); in the experiment on 786-0 it was 2.7 µM (inactive); in the experiment on OVCAR-8 it was 7.24 µM (inactive); in the experiment with K562, 3.09 µM (inactive); in the experiment with BT-549, 10 µM (inactive). Moreover, the GI50 with OVCAR-4 is 12.5 µM (inactive); with HOP-62, 3.58 µM (inactive); in the experiment with MDA-N, 2.18 µM (inactive); in the experiment on SW-620, 7.18 µM (inactive); in the experiment on U-251, 8.04 µM (inactive); in the experiment with SNB-19, 5.06 µM (inactive). Also, the GI50 was 6.7 µM (inactive) in the experiment with TK-10; 5.22 µM (inactive) in the experiment with NCI-H23; 6.7 µM (inactive) in the experiment on ACHN; 2.59 µM (inactive) in the experiment on NCI/ADR-RES; 6.3 µM (inactive) in the experiment with T47D; 2.42 µM (inactive) with NCI-H522.
